According to US20020137929A1, “1 - (3-heterocyclylphenyl) isothiourea, -isourea, -guanidine and -amidine herbicidal agents” (Intellectual Property Department, BASF Aktiengesellschaft, priority 1998, published 2002):

Key:
[1] = test system: GLXMAW (Soybean, Williams); assay: Preemergence herbicidal evaluation; assay type: in vivo, Glycine max, (L.) Merr. cv Williams; conditions: rated 4-5 weeks after treatment
How it was run: (§1)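 In this greenhouse assay, monocot and dicot seeds are planted in soil and treated prior to emergence with an aqueous acetone spray (about 0.0156-0.500 kg/ha). Plants are assessed visually against control on a 0-9 scale after 4-5 weeks.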

CASOB (Sicklepod) [2] = assay: Preemergence herbicidal evaluation; assay type: in vivo, Cassia obtusifolia; conditions: rated 4-5 weeks after treatment
How it was run: as §1

[3] = test system: SAGPY (Arrowhead (Pygmaea)); assay: Preemergence weed control under flooded paddy conditions; assay type: in vivo, Sagittaria pygmaea; conditions: rated 3-4 weeks after treatment
How it was run: (§2)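 Values are visual 0-9 scores against a control for a preemergence application into paddy flood water at about 0.0313 to 0.500 kg/ha. Greenhouse duration was three to four weeks.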

AMBEL (Ragweed, Common) [4] = assay: Postemergence herbicidal evaluation; assay type: in vivo, Ambrosia artemisifolia
How it was run: (§3)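 ~2-wk seedlings; postemergence spray, 40 psi; vehicle 1:1 acetone:water + 0.5% Tween 20; rate ≈0.0156–0.500 kg/ha; greenhouse hold; scored 4–5 wk after treatment, 0–9 scale vs control; repeat tests averaged.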

[5] = test system: IPOHE (Morningglory, Ivyleaf); assay: Postemergence herbicidal evaluation; assay type: in vivo, Ipomoea hederacea
How it was run: as §3

[6] = test system: CHEAL (Lambsquarters, Common); assay: Preemergence herbicidal evaluation; assay type: in vivo, Chenopodium album; conditions: rated 4-5 weeks after treatment
How it was run: as §1

ORYSAT (Rice, Tebonnet) = assay: Preemergence herbicidal evaluation; assay type: in vivo, Oryza sativa, (L.) Tebonnet; conditions: rated 4-5 weeks after treatment
How it was run: as §1

[7] = test system: TRZAWR (Wheat, Winter, cv Riband); assay: Postemergence herbicidal evaluation; assay type: in vivo, Triticum aestivum
How it was run: as §3

CASOB (Sicklepod) [8] = assay: Postemergence herbicidal evaluation; assay type: in vivo, Cassia obtusifolia
How it was run: as §3

[9] = test system: GLXMAW (Soybean, Williams); assay: Postemergence herbicidal evaluation; assay type: in vivo, Glycine max, (L.) Merr. cv Williams
How it was run: as §3

[10] = test system: CHEAL (Lambsquarters, Common); assay: Postemergence herbicidal evaluation; assay type: in vivo, Chenopodium album
How it was run: as §3

ECHCG (Barnyardgrass) = assay: Postemergence herbicidal evaluation; assay type: in vivo, Echinochloa crus-galli
How it was run: as §3

AMBEL (Ragweed, Common) [11] = assay: Preemergence herbicidal evaluation; assay type: in vivo, Ambrosia artemisifolia; conditions: rated 4-5 weeks after treatment
How it was run: as §1

ABUTH (Velvetleaf) = assay: Preemergence herbicidal evaluation; assay type: in vivo, Abutilon theophrasti; conditions: rated 4-5 weeks after treatment
How it was run: as §1

MOOVA (Monochoria) = assay: Preemergence weed control under flooded paddy conditions; assay type: in vivo, Monochoria vaginalis; conditions: rated 3-4 weeks after treatment
How it was run: as §2

[12] = test system: IPOHE (Morningglory, Ivyleaf); assay: Preemergence herbicidal evaluation; assay type: in vivo, Ipomoea hederacea; conditions: rated 4-5 weeks after treatment
How it was run: as §1

CCOC(=O)CN1C(=O)C(Cc2ccccc2OC(C)C(=O)OC)SC1=Nc1cc(-n2c(=O)cc(C(F)(F)F)n(C)c2=O)c(F)cc1Cl (centres unmarked) [Compound 50, 2-{{2-Chloro-5-[3,6-dihydro-3-methyl-2,6-dioxo-4-(trifluoromethyl)-1(2H)-pyrimidinyl]-4-fluoro-phenyl}imino}-5-(o-hydroxybenzyl)-4-oxo-3-thiazolidineacetic acid, ethyl ester, ester with methyl lactate]
Preemergence herbicidal rating GLXMAW ([1]; rate 0.0625 kg/ha): 0.0 | Preemergence herbicidal rating GLXMAW ([1]; rate 0.1250 kg/ha): 0.0 | Preemergence herbicidal rating GLXMAW ([1]; rate 0.2500 kg/ha): 0.0 | Preemergence herbicidal rating CASOB (CASOB (Sicklepod) [2]; rate 0.0625 kg/ha): 0.0 | Preemergence herbicidal rating CASOB (CASOB (Sicklepod) [2]; rate 0.1250 kg/ha): 9.0 | Preemergence herbicidal rating CASOB (CASOB (Sicklepod) [2]; rate 0.2500 kg/ha): 9.0 | Herbicidal rating SAGPY ([3]; 0.0313 kg/ha): 2.0 | Herbicidal rating SAGPY ([3]; 0.0625 kg/ha): 2.0 | Herbicidal rating SAGPY ([3]; 0.1250 kg/ha): 3.0 | Herbicidal rating SAGPY ([3]; 0.2500 kg/ha): 3.0 | Postemergence herbicidal rating AMBEL (AMBEL (Ragweed, Common) [4]; Rate 0.0156 kg/ha): 9.0 | Postemergence herbicidal rating AMBEL (AMBEL (Ragweed, Common) [4]; Rate 0.0313 kg/ha): 9.0 | Postemergence herbicidal rating AMBEL (AMBEL (Ragweed, Common) [4]; Rate 0.0625 kg/ha): 9.0 | Postemergence herbicidal rating IPOHE ([5]; Rate 0.0156 kg/ha): 9.0 | Postemergence herbicidal rating IPOHE ([5]; Rate 0.0313 kg/ha): 9.0 | Postemergence herbicidal rating IPOHE ([5]; Rate 0.0625 kg/ha): 9.0 | Preemergence herbicidal rating CHEAL ([6]; rate 0.0625 kg/ha): 0.0 | Preemergence herbicidal rating CHEAL ([6]; rate 0.1250 kg/ha): 9.0 | Preemergence herbicidal rating CHEAL ([6]; rate 0.2500 kg/ha): 9.0 | Preemergence herbicidal rating ORYSAT (ORYSAT (Rice, Tebonnet); rate 0.0625 kg/ha): 0.0 | Preemergence herbicidal rating ORYSAT (ORYSAT (Rice, Tebonnet); rate 0.1250 kg/ha): 0.0 | Preemergence herbicidal rating ORYSAT (ORYSAT (Rice, Tebonnet); rate 0.2500 kg/ha): 0.0 | Postemergence herbicidal rating TRZAWR ([7]; Rate 0.0156 kg/ha): 3.0 | Postemergence herbicidal rating TRZAWR ([7]; Rate 0.0313 kg/ha): 3.5 | Postemergence herbicidal rating TRZAWR ([7]; Rate 0.0625 kg/ha): 4.5 | Postemergence herbicidal rating CASOB (CASOB (Sicklepod) [8]; Rate 0.0156 kg/ha): 0.0 | Postemergence herbicidal rating CASOB (CASOB (Sicklepod) [8]; Rate 0.0313 kg/ha): 1.0 | Postemergence herbicidal rating CASOB (CASOB (Sicklepod) [8]; Rate 0.0625 kg/ha): 2.0 | Postemergence herbicidal rating GLXMAW ([9]; Rate 0.0156 kg/ha): 5.5 | Postemergence herbicidal rating GLXMAW ([9]; Rate 0.0313 kg/ha): 5.5 | Postemergence herbicidal rating GLXMAW ([9]; Rate 0.0625 kg/ha): 5.5 | Postemergence herbicidal rating CHEAL ([10]; Rate 0.0156 kg/ha): 0.0 | Postemergence herbicidal rating CHEAL ([10]; Rate 0.0313 kg/ha): 3.0 | Postemergence herbicidal rating CHEAL ([10]; Rate 0.0625 kg/ha): 5.0 | Postemergence herbicidal rating ECHCG (ECHCG (Barnyardgrass); Rate 0.0156 kg/ha): 0.0 | Postemergence herbicidal rating ECHCG (ECHCG (Barnyardgrass); Rate 0.0313 kg/ha): 0.0 | Postemergence herbicidal rating ECHCG (ECHCG (Barnyardgrass); Rate 0.0625 kg/ha): 2.0 | Preemergence herbicidal rating AMBEL (AMBEL (Ragweed, Common) [11]; rate 0.0625 kg/ha): 0.0 | Preemergence herbicidal rating AMBEL (AMBEL (Ragweed, Common) [11]; rate 0.1250 kg/ha): 0.0 | Preemergence herbicidal rating AMBEL (AMBEL (Ragweed, Common) [11]; rate 0.2500 kg/ha): 0.0 | Preemergence herbicidal rating ABUTH (ABUTH (Velvetleaf); rate 0.0625 kg/ha): 9.0 | Preemergence herbicidal rating ABUTH (ABUTH (Velvetleaf); rate 0.1250 kg/ha): 9.0 | Preemergence herbicidal rating ABUTH (ABUTH (Velvetleaf); rate 0.2500 kg/ha): 9.0 | Herbicidal rating MOOVA (MOOVA (Monochoria); 0.0313 kg/ha): 0.0 | Herbicidal rating MOOVA (MOOVA (Monochoria); 0.0625 kg/ha): 0.0 | Herbicidal rating MOOVA (MOOVA (Monochoria); 0.1250 kg/ha): 3.0 | Herbicidal rating MOOVA (MOOVA (Monochoria); 0.2500 kg/ha): 7.0 | Preemergence herbicidal rating IPOHE ([12]; rate 0.0625 kg/ha): 0.0 | Preemergence herbicidal rating IPOHE ([12]; rate 0.1250 kg/ha): 0.0 | Preemergence herbicidal rating IPOHE ([12]; rate 0.2500 kg/ha): 0.0

Cn1c(C(F)(F)F)cc(=O)n(-c2cc(/N=C3/SCC(=O)N3CC(=O)O)c(Cl)cc2F)c1=O [Compound 52, 2-{{2-Chloro-5-[3,6-dihydro-3-methyl-2,6-dioxo-4-(trifluoromethyl)-1(2H)-pyrimidinyl]-4-fluoro-phenyl}imino}-4-oxo-3-thiazolidineacetic acid]
Preemergence herbicidal rating GLXMAW ([1]; rate 0.0313 kg/ha): 0.0 | Preemergence herbicidal rating GLXMAW ([1]; rate 0.0625 kg/ha): 1.0 | Preemergence herbicidal rating GLXMAW ([1]; rate 0.1250 kg/ha): 1.0 | Preemergence herbicidal rating GLXMAW ([1]; rate 0.2500 kg/ha): 2.0 | Preemergence herbicidal rating CASOB (CASOB (Sicklepod) [2]; rate 0.0313 kg/ha): 0.0 | Preemergence herbicidal rating CASOB (CASOB (Sicklepod) [2]; rate 0.0625 kg/ha): 0.0 | Preemergence herbicidal rating CASOB (CASOB (Sicklepod) [2]; rate 0.1250 kg/ha): 1.0 | Preemergence herbicidal rating CASOB (CASOB (Sicklepod) [2]; rate 0.2500 kg/ha): 1.0 | Herbicidal rating SAGPY ([3]; 0.2500 kg/ha): 0.0 | Postemergence herbicidal rating AMBEL (AMBEL (Ragweed, Common) [4]; Rate 0.0158 kg/ha): 1.0 | Postemergence herbicidal rating AMBEL (AMBEL (Ragweed, Common) [4]; Rate 0.0315 kg/ha): 3.0 | Postemergence herbicidal rating AMBEL (AMBEL (Ragweed, Common) [4]; Rate 0.0630 kg/ha): 5.0 | Postemergence herbicidal rating IPOHE ([5]; Rate 0.0158 kg/ha): 4.0 | Postemergence herbicidal rating IPOHE ([5]; Rate 0.0315 kg/ha): 9.0 | Postemergence herbicidal rating IPOHE ([5]; Rate 0.0630 kg/ha): 9.0 | Preemergence herbicidal rating CHEAL ([6]; rate 0.0313 kg/ha): 0.0 | Preemergence herbicidal rating CHEAL ([6]; rate 0.0625 kg/ha): 6.0 | Preemergence herbicidal rating CHEAL ([6]; rate 0.1250 kg/ha): 9.0 | Preemergence herbicidal rating CHEAL ([6]; rate 0.2500 kg/ha): 9.0 | Preemergence herbicidal rating ORYSAT (ORYSAT (Rice, Tebonnet); rate 0.0313 kg/ha): 0.0 | Preemergence herbicidal rating ORYSAT (ORYSAT (Rice, Tebonnet); rate 0.0625 kg/ha): 0.0 | Preemergence herbicidal rating ORYSAT (ORYSAT (Rice, Tebonnet); rate 0.1250 kg/ha): 0.0 | Preemergence herbicidal rating ORYSAT (ORYSAT (Rice, Tebonnet); rate 0.2500 kg/ha): 4.0 | Postemergence herbicidal rating TRZAWR ([7]; Rate 0.0158 kg/ha): 2.5 | Postemergence herbicidal rating TRZAWR ([7]; Rate 0.0315 kg/ha): 3.0 | Postemergence herbicidal rating TRZAWR ([7]; Rate 0.0630 kg/ha): 4.5 | Postemergence herbicidal rating CASOB (CASOB (Sicklepod) [8]; Rate 0.0158 kg/ha): 1.0 | Postemergence herbicidal rating CASOB (CASOB (Sicklepod) [8]; Rate 0.0315 kg/ha): 1.0 | Postemergence herbicidal rating CASOB (CASOB (Sicklepod) [8]; Rate 0.0630 kg/ha): 2.0 | Postemergence herbicidal rating GLXMAW ([9]; Rate 0.0158 kg/ha): 5.0 | Postemergence herbicidal rating GLXMAW ([9]; Rate 0.0315 kg/ha): 6.0 | Postemergence herbicidal rating GLXMAW ([9]; Rate 0.0630 kg/ha): 6.0 | Postemergence herbicidal rating CHEAL ([10]; Rate 0.0158 kg/ha): 4.0 | Postemergence herbicidal rating CHEAL ([10]; Rate 0.0315 kg/ha): 4.0 | Postemergence herbicidal rating CHEAL ([10]; Rate 0.0630 kg/ha): 6.0 | Postemergence herbicidal rating ECHCG (ECHCG (Barnyardgrass); Rate 0.0158 kg/ha): 1.0 | Postemergence herbicidal rating ECHCG (ECHCG (Barnyardgrass); Rate 0.0315 kg/ha): 1.0 | Postemergence herbicidal rating ECHCG (ECHCG (Barnyardgrass); Rate 0.0630 kg/ha): 4.0 | Preemergence herbicidal rating AMBEL (AMBEL (Ragweed, Common) [11]; rate 0.0313 kg/ha): 0.0 | Preemergence herbicidal rating AMBEL (AMBEL (Ragweed, Common) [11]; rate 0.0625 kg/ha): 0.0 | Preemergence herbicidal rating AMBEL (AMBEL (Ragweed, Common) [11]; rate 0.1250 kg/ha): 2.0 | Preemergence herbicidal rating AMBEL (AMBEL (Ragweed, Common) [11]; rate 0.2500 kg/ha): 3.0 | Preemergence herbicidal rating ABUTH (ABUTH (Velvetleaf); rate 0.0313 kg/ha): 9.0 | Preemergence herbicidal rating ABUTH (ABUTH (Velvetleaf); rate 0.0625 kg/ha): 9.0 | Preemergence herbicidal rating ABUTH (ABUTH (Velvetleaf); rate 0.1250 kg/ha): 9.0 | Preemergence herbicidal rating ABUTH (ABUTH (Velvetleaf); rate 0.2500 kg/ha): 9.0 | Herbicidal rating MOOVA (MOOVA (Monochoria); 0.2500 kg/ha): 4.0 | Preemergence herbicidal rating IPOHE ([12]; rate 0.0313 kg/ha): 0.0 | Preemergence herbicidal rating IPOHE ([12]; rate 0.0625 kg/ha): 1.0 | Preemergence herbicidal rating IPOHE ([12]; rate 0.1250 kg/ha): 2.0 | Preemergence herbicidal rating IPOHE ([12]; rate 0.2500 kg/ha): 9.0
